Results as given in ChEMBL document CHEMBL1201862, “PubChem BioAssay data set” (2004).
Calls of active or inactive are those of the source.

Experiments:
[1] = Luminescence Cell-Based Dose Confirmation to Identify Activators of 5'UTR Stem-Loop Driven Alpha-Synuclein mRNA Translation in H4 Neuroglioblastoma Cells. [Related pubchem assays: 1829 (Project Summary), 1814 (Primary HTS)]; type: functional
[2] = Luminescence Cell-Based Dose Response HTS to Identify Activators of Luciferase Translation or Activity in H4 […] Cells. [Related pubchem assays: 1829 (Project Summary), 1814 (Primary HTS)]; type: functional
[3] = system: H4; assay: Luminescence Cell-Based Dose Response HTS to Identify Activators of 5'UTR Stem-Loop Driven Prion Protein mRNA Translation in H4 Neuroglioblastoma Cells. [Related pubchem assays: 1829 (Project Summary), 1814 (Primary HTS)]; type: functional; settings: Homo sapiens
[4] = Luminescence Cell-Based Dose Response to Identify Activators of 5'UTR Stem-Loop Driven Prion Protein mRNA Translation in H4-C Neuroglioblastoma Cells. [Related pubchem assays: 1829 (Project Summary), 1814 (Primary HTS)]; type: functional
[5] = Luminescence Cell-Based Dose Response to Identify Activators of Luciferase Translation or Activity in H4-C Neuroglioblastoma Cells. [Related pubchem assays: 1829 (Project Summary), 1814 (Primary HTS)]; type: functional
[6] = Luminescence Cell-Based Dose Confirmation HTS to Identify Activators of 5'UTR Stem-Loop Driven Alpha-Synuclein mRNA Translation in H4 Neuroglioblastoma Cells. [Related pubchem assays: 1829 (Project Summary), 1814 (Primary HTS)]; type: functional
[7] = toxicity to human hepatoma HepG2 cells – cell-based, cherry-picked samples, cytotoxicity control, dose response (AID 1159577); type: functional
[8] = system: HeLa; assay: ATP-based viability loss in HeLa cells – cell-based, CellTiter-Glo luminescence, cherry-pick samples, cytotoxicity control for MITF activator project, dose response (AID 540259); type: functional; settings: Homo sapiens
[9] = target: T1, Carboxy-terminal domain RNA polymerase II polypeptide A small phosphatase 1 (Homo sapiens, UniProt Q9GZU7); assay: CTDSP1 inhibitors, concentration-response, biochemical, absorbance readout, ultra-high-throughput screen actives (AID 540297); type: functional
T1 sequence (Q9GZU7 whole entry): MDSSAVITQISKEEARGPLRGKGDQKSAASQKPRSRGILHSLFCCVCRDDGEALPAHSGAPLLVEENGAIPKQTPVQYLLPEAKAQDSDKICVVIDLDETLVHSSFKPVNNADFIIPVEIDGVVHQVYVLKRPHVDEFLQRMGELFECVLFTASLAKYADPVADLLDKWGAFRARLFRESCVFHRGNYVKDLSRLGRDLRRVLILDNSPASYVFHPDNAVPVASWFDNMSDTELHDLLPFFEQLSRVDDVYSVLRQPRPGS

[10] = target: T2, Zinc finger protein mex-5 (Caenorhabditis elegans, UniProt Q9XUB2); assay: potency of MEX-5 RNA-binding blockers – biochemical, C. elegans, fluorescence polarization, dose response (AID 1960)
T2 sequence (Q9XUB2 whole entry): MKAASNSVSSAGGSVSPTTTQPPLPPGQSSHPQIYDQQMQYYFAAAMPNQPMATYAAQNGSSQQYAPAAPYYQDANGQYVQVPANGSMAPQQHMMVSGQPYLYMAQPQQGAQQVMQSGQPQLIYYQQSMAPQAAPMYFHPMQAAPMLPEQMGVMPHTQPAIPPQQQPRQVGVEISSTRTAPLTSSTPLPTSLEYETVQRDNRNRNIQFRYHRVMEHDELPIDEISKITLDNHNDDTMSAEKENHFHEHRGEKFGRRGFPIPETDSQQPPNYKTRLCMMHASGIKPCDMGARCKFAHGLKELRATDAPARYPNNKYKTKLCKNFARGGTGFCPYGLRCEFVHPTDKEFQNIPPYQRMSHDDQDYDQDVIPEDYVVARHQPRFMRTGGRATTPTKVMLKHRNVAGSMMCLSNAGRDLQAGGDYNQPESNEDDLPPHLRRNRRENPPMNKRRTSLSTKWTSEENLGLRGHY

[11] = target: T3, Histone-lysine N-methyltransferase NSD2 (Homo sapiens, UniProt O96028); type: biochemical
T3 sequence (O96028 whole entry): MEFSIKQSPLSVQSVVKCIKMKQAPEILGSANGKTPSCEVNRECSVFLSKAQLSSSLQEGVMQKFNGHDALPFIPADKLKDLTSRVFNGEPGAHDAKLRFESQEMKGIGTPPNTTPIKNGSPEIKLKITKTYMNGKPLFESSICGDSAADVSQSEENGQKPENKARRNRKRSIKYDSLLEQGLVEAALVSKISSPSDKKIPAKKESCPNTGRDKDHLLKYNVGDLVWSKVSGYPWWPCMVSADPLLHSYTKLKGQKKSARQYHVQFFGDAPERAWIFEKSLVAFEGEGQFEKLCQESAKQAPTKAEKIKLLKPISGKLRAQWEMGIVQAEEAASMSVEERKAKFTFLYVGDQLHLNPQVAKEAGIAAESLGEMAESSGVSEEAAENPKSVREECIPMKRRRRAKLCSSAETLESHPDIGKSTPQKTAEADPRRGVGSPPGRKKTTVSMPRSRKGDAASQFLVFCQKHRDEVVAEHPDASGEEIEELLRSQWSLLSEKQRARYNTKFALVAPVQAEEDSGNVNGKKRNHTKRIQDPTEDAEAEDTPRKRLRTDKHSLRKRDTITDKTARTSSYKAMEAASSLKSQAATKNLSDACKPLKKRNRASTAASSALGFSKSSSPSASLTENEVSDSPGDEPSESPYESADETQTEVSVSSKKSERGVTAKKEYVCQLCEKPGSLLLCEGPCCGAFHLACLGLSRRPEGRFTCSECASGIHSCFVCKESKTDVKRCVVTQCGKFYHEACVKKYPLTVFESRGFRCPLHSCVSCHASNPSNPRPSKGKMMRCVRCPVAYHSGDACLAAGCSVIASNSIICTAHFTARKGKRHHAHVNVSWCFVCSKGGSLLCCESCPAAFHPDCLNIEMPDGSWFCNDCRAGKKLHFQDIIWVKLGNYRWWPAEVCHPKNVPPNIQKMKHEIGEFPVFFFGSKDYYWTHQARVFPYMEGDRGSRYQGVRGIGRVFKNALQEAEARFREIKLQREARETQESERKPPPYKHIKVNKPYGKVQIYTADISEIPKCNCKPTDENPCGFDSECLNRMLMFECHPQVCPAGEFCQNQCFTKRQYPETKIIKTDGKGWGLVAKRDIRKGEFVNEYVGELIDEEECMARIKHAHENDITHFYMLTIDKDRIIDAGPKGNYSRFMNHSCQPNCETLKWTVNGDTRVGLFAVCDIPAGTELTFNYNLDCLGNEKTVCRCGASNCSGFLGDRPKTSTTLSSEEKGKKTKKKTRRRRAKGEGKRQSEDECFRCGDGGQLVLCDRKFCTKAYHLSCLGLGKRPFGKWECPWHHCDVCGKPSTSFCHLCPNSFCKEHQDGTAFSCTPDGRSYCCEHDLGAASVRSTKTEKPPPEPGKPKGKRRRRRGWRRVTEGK

[12] = target: T4, RNA-binding protein pos-1 (Caenorhabditis elegans, UniProt G5EF15); assay: disruptors of C. elegans POS-1 RNA interaction – biochemical, fluorescence polarization, dose response (AID 1964);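 note: purified POS-1 fused to maltose binding protein made in E. coli; potency of compounds blocking POS-1 binding to fluorescent RNA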
T4 sequence (G5EF15 whole entry): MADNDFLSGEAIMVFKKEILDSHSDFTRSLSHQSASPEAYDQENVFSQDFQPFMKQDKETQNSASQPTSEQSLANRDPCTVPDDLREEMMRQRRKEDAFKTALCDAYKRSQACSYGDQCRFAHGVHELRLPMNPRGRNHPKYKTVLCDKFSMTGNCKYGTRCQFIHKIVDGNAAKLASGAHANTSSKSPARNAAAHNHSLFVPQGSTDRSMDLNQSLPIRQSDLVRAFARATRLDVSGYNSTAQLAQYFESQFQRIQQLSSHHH

[13] = target: T5, Caspase-6 (Homo sapiens, UniProt P55212); assay: inhibition of CASP6 peptide cleavage – biochemical, VEID-R110 fluorescence, cherry-pick, dose response (AID 720632)
T5 sequence (P55212 whole entry): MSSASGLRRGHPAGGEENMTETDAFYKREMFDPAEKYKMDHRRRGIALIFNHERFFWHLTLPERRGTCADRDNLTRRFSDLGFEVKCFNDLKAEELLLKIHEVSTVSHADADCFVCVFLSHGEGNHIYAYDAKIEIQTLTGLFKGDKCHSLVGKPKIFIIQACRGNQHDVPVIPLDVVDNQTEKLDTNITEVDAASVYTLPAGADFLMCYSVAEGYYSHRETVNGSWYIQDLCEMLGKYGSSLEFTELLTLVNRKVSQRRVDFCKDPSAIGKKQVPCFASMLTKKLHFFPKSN

[14] = viability loss in THP-1 monocytes – THP-1 cells, cytotoxicity control for Vif-APOBEC3G degradation inhibitor project, dose response (AID 1117359); type: functional; settings: THP-1
[15] = target: T6, Rac GTPase-activating protein 1 (Homo sapiens, UniProt Q9H0H5); assay: blockers of MgcRacGAP-driven Rac1 GTP hydrolysis – biochemical, ADP Hunter fluorescence, primary and confirmatory, confirmation (AID 624330); type: functional
T6 sequence (Q9H0H5 whole entry): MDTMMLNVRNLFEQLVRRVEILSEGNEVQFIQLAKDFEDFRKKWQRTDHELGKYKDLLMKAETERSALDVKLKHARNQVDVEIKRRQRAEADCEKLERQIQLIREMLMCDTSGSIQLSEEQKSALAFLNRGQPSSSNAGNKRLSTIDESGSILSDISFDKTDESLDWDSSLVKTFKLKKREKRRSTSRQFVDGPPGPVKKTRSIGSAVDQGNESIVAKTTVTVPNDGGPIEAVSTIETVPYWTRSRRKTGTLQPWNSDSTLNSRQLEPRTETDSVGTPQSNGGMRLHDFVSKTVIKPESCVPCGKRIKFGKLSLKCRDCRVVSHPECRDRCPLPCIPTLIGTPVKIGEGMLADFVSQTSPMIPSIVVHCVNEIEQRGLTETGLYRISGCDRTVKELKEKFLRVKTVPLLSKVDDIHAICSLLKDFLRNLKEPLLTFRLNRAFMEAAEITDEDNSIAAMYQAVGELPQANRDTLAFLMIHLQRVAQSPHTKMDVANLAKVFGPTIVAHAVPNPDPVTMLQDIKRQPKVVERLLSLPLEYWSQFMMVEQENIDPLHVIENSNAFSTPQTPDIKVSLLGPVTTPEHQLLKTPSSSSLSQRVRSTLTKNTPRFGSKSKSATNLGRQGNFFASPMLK

[16] = Dd2 malaria parasite growth inhibition potency – SYBR Green, dry powder samples, dose response (AID 1159566); type: functional, cell-based;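 note: potency for growth inhibition with lower SYBR green DNA signal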
[17] = P. falciparum Dd2 growth inhibitors, dose response, SYBR Green, cherry-picked samples (AID 1159567); type: functional, cell-based
[18] = growth inhibition of PfATP4-mutant resistant parasites – NITD609-resistant line, SYBR Green, dry powder, dose response (AID 1159571); type: functional, cell-based;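 note: parasites synchronized at ring stage by sorbitol before testing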
[19] = toxicity to human HepG2 hepatoma cells – cell-based, plate reader, dry powder samples, cytotoxicity control, dose response (AID 1159569); type: functional;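 note: inhibitor potency with signal falling toward the positive control level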
[20] = growth inhibition of yeast DHODH-expressing 3D7 parasites – SYBR Green, dry powder samples, dose response (AID 1159570); type: functional, cell-based;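 note: parasite growth measured after 72 hours of compound exposure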

Cc1ccc(-n2c(C)csc2=N)cc1
active: EC50 [1] 421 nM | EC50 [2] 102 nM | EC50 [3] 547 nM | EC50 [4] 373 nM | EC50 [5] 8210 nM | EC50 [6] < 100 nM

C[C@H](CO)N1C[C@H](C)[C@@H](CN(C)C(=O)CCCN(C)C)OCc2cnnn2CCCC1=O
inactive: AC50 [7] > 42000 nM

Cc1cc2cc(OCc3ccccc3)ccc2n1C
active: EC50 [1] 217 nM | EC50 [3] < 100 nM | AC50 [8] 97800 nM | EC50 [4] 383 nM | EC50 [5] 393 nM

Cc1cc(C=O)c(C)n1-c1cc(C(=O)O)cc(C(=O)O)c1
active: IC50 [9] 3160 nM | AC50 [13] 1710 nM
inactive: AC50 [11] > 20000 nM
> 300000 nM (not active): EC50 [10] | EC50 [12]

Nc1c(C(=O)N2CCCCC2)sc2nc3c(cc12)CCCC3
active: EC50 [1] 322 nM | EC50 [2] < 100 nM | EC50 [4] 682 nM | EC50 [5] 923 nM

NCCC(=O)N1c2ccccc2Sc2ccccc21
active: CC50 [14] > 40000 nM

COc1cc(Br)c(CNc2cc(C)ccc2C)cc1OC
active: IC50 [15] 97400 nM | CC50 [14] 12600 nM

CCCN1[C@H](CO)[C@H](c2ccc(C3=CCCC3)cc2)[C@H]1CN(C(C)=O)C1CCCC1
active: AC50 [16] 1750 nM | AC50 [17] 1920 nM | AC50 [18] 1600 nM | AC50 [19] 72100 nM | AC50 [20] 3260 nM

OC[C@@H]1Nc2ccc(C#Cc3cccc(F)c3)cc2[C@H]2NCC[C@@H]12
active: AC50 [16] 804 nM | AC50 [17] 3010 nM | AC50 [18] 2340 nM | AC50 [19] 17500 nM | AC50 [7] 25600 nM | AC50 [20] 1150 nM

COc1ccc(C#Cc2cccc(-c3nc(C(=O)Nc4ccc(-c5ccccc5)cc4)cc4c3[C@@H](CCO)N([S+]([O-])C(C)(C)C)C4)c2)cc1OC (stereo not given in full)
active: AC50 [16] 486 nM | AC50 [17] 995 nM | AC50 [18] 621 nM | AC50 [19] 24100 nM | AC50 [20] 1120 nM
inactive: AC50 [7] > 39000 nM

COc1ccc(OC)c(NC(=O)CSc2nc3ccccc3c(=O)n2CC2CCCO2)c1 (stereo not given)
active: CC50 [14] > 40000 nM

N#C[C@@H]1[C@@H](c2ccccc2C2=CCCC2)[C@@H](CO)N1C(=O)NC1CCCC1
active: AC50 [16] 592 nM | AC50 [17] 791 nM | AC50 [18] 744 nM | AC50 [19] 56800 nM | AC50 [20] 10900 nM

COc1cccc(CN2C[C@@H]3N[C@H](C2)[C@@H]3c2ccc(-c3ccc(C#N)cc3)cc2)c1
active: AC50 [17] 3090 nM | AC50 [7] 9630 nM

CN(C)/C=C1\C(=O)N(c2ccc(Cl)cc2)CS1(=O)=O
active: EC50 [1] 697 nM | EC50 [2] 63600 nM | EC50 [4] 1520 nM | EC50 [5] 648 nM | EC50 [6] < 100 nM
> 120000 nM (not active): EC50 [3]
